Source: patent US4117148A, “2,9-Dioxatricyclo [4,3,1,0,3,7] decane derivatives, processes for their preparation and pharmaceutical compositions thereof” (Kali-Chemie Pharma GmbH., priority 1977, dated 1978)
Like-named read-outs stand apart in the source and are kept apart here.

How the values were obtained:
rat's paw = experiment: Randall-Selitto-Test, pressure pain threshold in the rat's paw (antiphlogistic/analgesic); type: in vivo; details: for ED50: Rattus norvegicus, sc
[1] = system: phenyl benzoquinone syndrome in mice; experiment: Phenyl benzoquinone syndrome (writhing test), analgesic activity; type: in vivo, mouse; details: for ED50: Mus musculus, po, read-out: Analgesic activity, inhibition of PBC-syndrome, ED50
[2] = Acute toxicity, LD50 after i.p. administration; type: in vivo; details: mouse, in vivo, ip, mice
Protocol: (§1) The toxicity of the 3-azidomethyl-2,9-dioxatricyclo[4,3,1,0^3,7 ] decanes of the formula (I) is extremely low. The LD50 in mice is in the range of between about 500 and about 700 mg/kg, when determined after i.p. administration of the compounds.

mice = experiment: Acute toxicity, LD50 after i.p. administration; type: in vivo
Protocol: as §1

[3] = normal paw, read-out: Randall Selitto-test ED50, normal paw
[4] = oedema bearing paw, read-out: Randall Selitto-test ED50, oedema bearing paw

Structure (SMILES)	ED50 (rat's paw; [3])	ED50 (rat's paw; [4])	ED50 [1]	ED50 ([1]; mouse, p.o.)	LD50 [2]	LD50 (mice)	Randall Selitto-test ED50, normal paw (rat's paw; s.c., normal paw)	Randall Selitto-test ED50, oedema bearing paw (rat's paw; s.c., oedema bearing paw)	Analgesic activity, inhibition of PBC-syndrome, ED50 ([1]; mouse, p.o.)
CC(=O)Oc1ccccc1C(=O)O [Apsirin, reference compound]	> 700 mg/kg	440 mg/kg	240 mg/kg	–	–	–	–	–	–
C=C1C2OC(OC)C3C1CC(OC(C)=O)C3(CN=[N+]=[N-])O2 (stereo not drawn) [XXV, 3-azidomethyl-4α-acetoxy-8-methoxy-10-methylene-2,9-DTD]	100 mg/kg	100 mg/kg	–	~56 mg/kg	–	–	–	–	–
CCCCC1C(=O)N(c2ccccc2)N(c2ccccc2)C1=O [Phenylbutazone, reference compound]	> 100 mg/kg	58 mg/kg	–	> 30 mg/kg	–	–	–	–	–
COc1ccc2c(c1)c(CC(=O)O)c(C)n2C(=O)c1ccc(Cl)cc1 [Indomethazine, reference compound]	250 mg/kg	64 mg/kg	–	–	–	–	–	–	–
COC1OC2OC3(CN=[N+]=[N-])C(O)CC(C2C)C13 (stereo not drawn) [XXII, 3-azidomethyl-4α-hydroxy-8-methoxy-10β-methyl-2,9-DTD]	> 32 mg/kg	> 32 mg/kg	–	18.5 mg/kg	571 mg/kg	–	–	–	–
COC1OC2OC3(CN=[N+]=[N-])C(OC(C)=O)CC(C2C)C13 (stereo not drawn) [XXVI, 3-azidomethyl-4α-acetoxy-8-methoxy-10β-methyl-2,9-DTD]	–	–	–	–	–	574 mg/kg	~ 32 mg/kg	15 mg/kg	< 3.2 mg/kg
COC1OC2OC3(CN=[N+]=[N-])C(OC(C)=O)CC(C2C)C13 (stereo not drawn) [X, 3-azidomethyl-4β-acetoxy-8-methoxy-10β-methyl-2,9-DTD]	> 32 mg/kg	–	–	–	739 mg/kg	–	–	> 32 mg/kg	~ 10 mg/kg
COc1ccc2cc([C@H](C)C(=O)O)ccc2c1 [Naproxene, reference compound]	250 mg/kg	147 mg/kg	–	30 mg/kg	–	–	–	–	–
COC1OC2OC3(CN=[N+]=[N-])C(=O)CC(C2C)C13 (stereo not drawn) [XVIII, 3-azidomethyl-8-methoxy-10β-methyl-2,9-DTD-4-one]	> 100 mg/kg	> 100 mg/kg	–	< 56 mg/kg	632 mg/kg	–	–	–	–
